Experimental data published in patent US20250235543A1, “MODIFIED PROTEINS AND PROTEIN DEGRADERS” (Cullgen (Shanghai), Inc., priority 2021, published 2025).
Like-named read-outs stand apart in the source and are kept apart here.

Legend:
DDB1 = target: T1, DDB1 (Homo sapiens, UniProt Q16531, D705G/DEL396-460/DEL463-701/I704S/T703N); test: SPR binding assay to immobilized DDB1ΔBPB; settings: binding affinities to DDB1
T1 construct: His6 (N, cleaved yes); TEV protease cleavage site (N, cleaved yes); made in house; host or cells: SF9 insect cells, Bac-to-Bac baculovirus, pFastBacHTB vector
Experimental: The binding affinities of heterobifunctional compounds to DDB1 were determined by SPR assay (FIG. 1A-1B). Purified DDB1ΔBPB proteins were immobilized on a CM5 sensor chip, and a dose range of compound solutions were injected in multi-cycle kinetic format. Data were fit to a steady state model to provide equivalent dissociation constants (Kd).
Human DDB1ΔBPB (UniProt: Q16531. BPB domain, aa 396 to 705, is replaced with a GNGNSG linker) coding sequences were cloned into pFastBacHTB vector and were expressed in SF9 cells using Bac-to-Bac baculovirus expression system (Thermo Fisher Scientific). The expression constructs include an N-terminal His6-tag to facilitate the purification, and a TEV protease cleavage site in between. DDB1ΔBPB proteins were obtained from supernatant of cell lysates and purified through sequential application of Ni affinity column (Ni-NTA column, Bio-Rad) and size-exclusion column (Superdex 200 16/600GL column, GE Healthcare) chromatography. Protein tags were cleaved off by TEV protease, and the resulting untagged proteins were further purified by Ni affinity column. Purified proteins were verified by immunoblotting, analytic SEC, and LC-MS.
SPR studies were performed on a Biacore X100 plus instrument (GE Healthcare). Immobilization of purified DDB1ΔBPB was carried out at 25° C. using a CM5 sensor chip. The surface was pre-equilibrated in HBS-EP running buffer (10 mM HEPES, pH7.4, 150 mM NaCl, 3 mM EDTA, 0.05% P20), before it was activated with EDC/NHS. DDB1ΔBPB proteins were immobilized by amine coupling to a density of 10,000-12,000 resonance units (RUs) on flow cell FC2, whereas flow cell FC1 was used as reference. Both protein immobilized and reference surfaces were deactivated with 1M ethanolamine. All interaction experiments were performed at 25° C. Test compounds were prepared and serially diluted in HBS-EP running buffer containing final 5% DMSO (6-point two-fold serial dilution, 100 μM-3.125 μM final concentration of compounds). Compound solutions were injected individually in multi-cycle kinetic format without regeneration (flow rate 30 μl/min, association time 120 s, dissociation time 120 s). Sensorgrams from reference surfaces and blank injections were subtracted from the raw data (double-referencing) and the data was solvent-corrected prior to analysis. All data were fit to steady state affinity model using Biacore Evaluation Software to provide equivalent dissociation constants (Kd).

cyclin D1 = test: Cyclin D1 percentage degradation in Calu-1 cells (immunoblotting); format: cell-based; settings: 200 nM, 16 hours
Method in brief: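 Cells were rinsed once in cold PBS and lysed in cold RIPA buffer containing protease and phosphatase inhibitors, with gentle agitation at 4° C. for 30 min. Lysates were spun at 13,000 rpm for 10 min at 4° C., protein was measured by BCA, and samples were boiled in Laemmli buffer at 99° C. for 5 min before SDS-PAGE immunoblotting.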

CDK4 = target: T2, CDK4 (Homo sapiens, UniProt P11802); test: CDK4 percentage degradation in Calu-1 cells (immunoblotting); format: cell-based; settings: read-out: CDK4 Degradation (200 nM)
T2 construct: endogenous in cells; host or cells: Calu-1
Method in brief: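 Cultured cells were rinsed once in cold PBS and lysed in cold RIPA buffer containing protease and phosphatase inhibitors, with gentle agitation at 4° C. for 30 min. Lysates were centrifuged at 13,000 rpm for 10 min at 4° C., and protein was quantified by BCA. Samples were then separated by SDS-PAGE, detected with ECL, and the CDK4 bands quantified in Image Lab.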

T1 sequence (Q16531 other isoform, or with tags, fused parts or gaps DEL396-460/DEL463-701/T703N/I704S/D705G): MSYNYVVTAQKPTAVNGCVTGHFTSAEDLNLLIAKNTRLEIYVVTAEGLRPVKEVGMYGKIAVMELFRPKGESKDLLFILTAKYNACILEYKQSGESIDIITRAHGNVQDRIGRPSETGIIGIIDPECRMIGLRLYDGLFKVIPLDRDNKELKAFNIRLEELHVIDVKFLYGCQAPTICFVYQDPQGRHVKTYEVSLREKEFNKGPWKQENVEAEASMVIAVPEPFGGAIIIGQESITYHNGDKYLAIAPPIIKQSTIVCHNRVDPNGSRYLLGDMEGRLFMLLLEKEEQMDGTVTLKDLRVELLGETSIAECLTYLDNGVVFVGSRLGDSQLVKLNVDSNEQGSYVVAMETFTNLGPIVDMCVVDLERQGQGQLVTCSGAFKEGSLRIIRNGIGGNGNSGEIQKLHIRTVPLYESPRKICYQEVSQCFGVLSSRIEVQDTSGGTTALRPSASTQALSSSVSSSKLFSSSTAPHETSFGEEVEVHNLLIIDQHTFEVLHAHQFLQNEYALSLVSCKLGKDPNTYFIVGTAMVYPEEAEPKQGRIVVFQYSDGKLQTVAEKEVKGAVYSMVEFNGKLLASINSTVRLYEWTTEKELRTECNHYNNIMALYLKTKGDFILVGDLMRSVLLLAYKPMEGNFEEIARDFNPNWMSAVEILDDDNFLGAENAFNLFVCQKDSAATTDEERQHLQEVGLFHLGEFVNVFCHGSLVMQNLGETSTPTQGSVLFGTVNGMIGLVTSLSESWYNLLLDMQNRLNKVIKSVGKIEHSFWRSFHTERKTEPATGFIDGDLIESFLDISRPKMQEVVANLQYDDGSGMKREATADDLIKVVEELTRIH
T2 sequence (P11802 2-303 limits assumed): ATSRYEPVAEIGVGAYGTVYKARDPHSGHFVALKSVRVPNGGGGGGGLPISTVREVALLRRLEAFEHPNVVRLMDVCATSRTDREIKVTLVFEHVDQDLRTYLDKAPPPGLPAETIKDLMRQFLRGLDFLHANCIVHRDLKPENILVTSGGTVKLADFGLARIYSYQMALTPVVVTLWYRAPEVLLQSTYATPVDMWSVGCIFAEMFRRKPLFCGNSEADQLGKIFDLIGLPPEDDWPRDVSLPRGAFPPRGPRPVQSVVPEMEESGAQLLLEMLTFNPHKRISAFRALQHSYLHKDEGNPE
T2 sequence (P24385 whole entry partner): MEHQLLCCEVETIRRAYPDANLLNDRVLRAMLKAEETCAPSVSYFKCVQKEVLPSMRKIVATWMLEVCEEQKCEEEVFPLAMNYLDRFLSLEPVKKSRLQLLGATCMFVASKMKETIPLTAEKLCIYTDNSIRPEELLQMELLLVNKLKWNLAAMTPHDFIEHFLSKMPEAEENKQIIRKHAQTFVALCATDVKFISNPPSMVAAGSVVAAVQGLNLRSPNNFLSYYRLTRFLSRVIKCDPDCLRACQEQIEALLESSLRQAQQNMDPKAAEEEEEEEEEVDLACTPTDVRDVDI
T2 sequence (Q16531 2-1140 limits assumed, further chain): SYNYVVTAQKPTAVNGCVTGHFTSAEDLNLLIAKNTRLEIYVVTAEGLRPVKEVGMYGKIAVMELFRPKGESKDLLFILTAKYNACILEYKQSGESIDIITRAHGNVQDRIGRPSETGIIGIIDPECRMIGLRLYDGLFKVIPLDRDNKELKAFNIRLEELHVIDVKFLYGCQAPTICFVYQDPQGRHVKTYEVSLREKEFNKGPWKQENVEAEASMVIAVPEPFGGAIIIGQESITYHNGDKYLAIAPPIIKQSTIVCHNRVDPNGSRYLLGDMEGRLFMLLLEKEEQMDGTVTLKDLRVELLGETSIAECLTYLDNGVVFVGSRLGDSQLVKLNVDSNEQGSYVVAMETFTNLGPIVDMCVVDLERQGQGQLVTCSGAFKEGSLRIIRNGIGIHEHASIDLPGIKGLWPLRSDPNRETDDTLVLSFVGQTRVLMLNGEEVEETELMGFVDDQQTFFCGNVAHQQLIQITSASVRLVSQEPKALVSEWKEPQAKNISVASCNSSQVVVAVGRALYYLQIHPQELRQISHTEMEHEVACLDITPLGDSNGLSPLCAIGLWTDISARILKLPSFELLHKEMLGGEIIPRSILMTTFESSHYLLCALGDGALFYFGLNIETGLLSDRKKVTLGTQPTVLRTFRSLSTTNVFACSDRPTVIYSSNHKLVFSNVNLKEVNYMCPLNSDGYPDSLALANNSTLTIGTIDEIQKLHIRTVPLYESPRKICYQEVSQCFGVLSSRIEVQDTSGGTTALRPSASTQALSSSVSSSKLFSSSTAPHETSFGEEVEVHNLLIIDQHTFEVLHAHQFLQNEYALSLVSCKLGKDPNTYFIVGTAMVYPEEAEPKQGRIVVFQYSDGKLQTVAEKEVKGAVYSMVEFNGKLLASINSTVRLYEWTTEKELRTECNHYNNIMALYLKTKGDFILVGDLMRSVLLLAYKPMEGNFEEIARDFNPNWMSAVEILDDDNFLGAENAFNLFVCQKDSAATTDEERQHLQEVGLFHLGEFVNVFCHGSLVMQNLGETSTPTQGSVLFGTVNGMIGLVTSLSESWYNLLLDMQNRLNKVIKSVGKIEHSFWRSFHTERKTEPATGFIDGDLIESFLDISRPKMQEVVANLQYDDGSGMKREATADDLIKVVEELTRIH

Row | Structure (SMILES) | Kd (DDB1) [µM] | CyclinD1 Degradation (200 nM) (cyclin D1) | inhibition at 0.2 µM (CDK4; Calu-1 cells, 200 nM, 16 hours) [%] | inhibition at 0.2 µM (CDK4; Calu-1, 16 h) [%]
1 | Cc1cnc(NC(=O)c2ccc(NCCOCCOCCOCCOCCOCCN)cc2C)s1 [BL1-24, 4-((17-amino-3,6,9,12,15-pentaoxaheptadecyl)amino)-2-methyl-N-(5-methylthiazol-2-yl)benzamide] | < 20 |  |  | 
2 | CCc1nc(NC(=O)c2ccccc2C)sc1C [B1-5, N-(4-ethyl-5-methylthiazol-2-yl)-2-methylbenzamide] | 20 to 50 |  |  | 
3 | CC(=O)NCCCCCCCCC(=O)Nc1ccccc1C(=O)Nc1nc(C)c(C)s1 [B1-79, 2-(9-acetamidononanamido)-N-(4,5-dimethylthiazol-2-yl)benzamide] | 20 to 50 |  |  | 
4 | CC(=O)Nc1ccccc1C(=O)Nc1ccc(C)c(C2CC2)n1 [B1-73, 2-acetamido-N-(6-cyclopropyl-5-methylpyridin-2-yl)benzamide] | > 100 |  |  | 
5 | COc1ccc(NC(=O)c2ccccc2NC(C)=O)nc1 [B1-83, 2-acetamido-N-(5-methoxypyridin-2-yl)benzamide] | 20 to 50 |  |  | 
6 | CC(=O)Nc1ccccc1C(=O)Nc1ccc(C)cn1 [B1-31, 2-acetamido-N-(5-methylpyridin-2-yl)benzamide] | > 100 |  |  | 
7 | CC(=O)NCCOCCOCCNc1cccc(C(=O)Nc2nc(C)c(C)s2)c1C [B1-80, 3-((2-(2-(2-acetamidoethoxy)ethoxy)ethyl)amino)-N-(4,5-dimethylthiazol-2-yl)-2-methylbenzamide] | < 20 |  |  | 
8 | Cc1ccccc1C(=O)Nc1cc(C)n(C)n1 [B1-8, N-(1,5-dimethyl-1H-pyrazol-3-yl)-2-methylbenzamide] | > 100 |  |  | 
9 | Cc1ccccc1C(=O)Nc1nc(Br)c(C)s1 [B1-2, N-(4-bromo-5-methylthiazol-2-yl)-2-methylbenzamide] | > 100 |  |  | 
10 | COC(=O)c1nc(NC(=O)c2ccccc2C)sc1C [B1-4, methyl 5-methyl-2-(2-methylbenzamido)thiazole-4-carboxylate] | < 20 |  |  | 
11 | COC(=O)c1nc(NC(=O)c2ccc(NCCOCCOCCOCCOCCOCCN)cc2C)sc1C [BL1-38, methyl 2-(4-((17-amino-3,6,9,12,15-pentaoxaheptadecyl)amino)-2-methylbenzamido)-5-methylthiazole-4-carboxylate] | < 20 |  |  | 
12 | COc1ccc(NC(=O)c2ccccc2NC(C)=O)nn1 [B1-53, 2-acetamido-N-(6-methoxypyridazin-3-yl)benzamide] | 20 to 50 |  |  | 
13 | CC(=O)c1c(C)c2cnc(Nc3ccc(N4CCN(CC(=O)NCCCCCCCCCNC(=O)CNc5ccc(C(=O)Nc6ncc(C)s6)c(C)c5)CC4)cn3)nc2n(C2CCCC2)c1=O [CPD-035] |  | C (protein percentage degradation <50%, and >=30%) | 30 to 50 | 
14 | CC(=O)c1c(C)c2cnc(Nc3ccc(N4CCN(CC(=O)NCCOCCOCCC(=O)Nc5ccccc5C(=O)Nc5cc(C)[nH]n5)CC4)cn3)nc2n(C2CCCC2)c1=O [CPD-074, 2-(3-(2-(2-(2-(4-(6-((6-Acetyl-8-cyclopentyl-5-methyl-7-oxo-7,8-dihydropyrido[2,3-d]pyrimidin-2-yl)amino)pyridin-3-yl)piperazin-1-yl)acetamido)ethoxy)ethoxy)propanamido)-N-(5-methyl-1H-pyrazol-3-yl)benzamide] |  | B (protein percentage degradation <80%, and >=50%) | 50 to 80 | 
15 | CC(=O)c1c(C)c2cnc(Nc3ccc(N4CCN(CC(=O)NCCOCCOCCOCCOCCC(=O)Nc5ccccc5C(=O)Nc5nc(C)c(C)s5)CC4)cn3)nc2n(C2CCCC2)c1=O [CPD-170, 2-(1-(4-(6-((6-Acetyl-8-cyclopentyl-5-methyl-7-oxo-7,8-dihydropyrido[2,3-d]pyrimidin-2-yl)amino)pyridin-3-yl)piperazin-1-yl)-2-oxo-6,9,12,15-tetraoxa-3-azaoctadecan-18-amido)-N-(4,5-dimethylthiazol-2-yl)benzamide] |  | A (protein percentage degradation >=80%) | 50 to 80 | 
16 | CC(=O)c1c(C)c2cnc(Nc3ccc(N4CCN(CC(=O)NCCOCCOCCC(=O)Nc5cc6c(cc5C(=O)Nc5ccc(C)cn5)CCCN6)CC4)cn3)nc2n(C2CCCC2)c1=O [CPD-358, 7-(3-(2-(2-(2-(4-(6-((6-Acetyl-8-cyclopentyl-5-methyl-7-oxo-7,8-dihydropyrido[2,3-d]pyrimidin-2-yl)amino)pyridin-3-yl)piperazin-1-yl)acetamido)ethoxy)ethoxy)propanamido)-N-(5-methylpyridin-2-yl)-1,2,3,4-tetrahydroquinoline-6-carboxamide] |  | A (protein percentage degradation >=80%) | 50 to 80 | 
17 | CC(=O)c1c(C)c2cnc(Nc3ccc(N4CCN(CC(=O)NCCOCCOCCC(=O)Nc5ccccc5C(=O)Nc5nc(C6CC6)c(C)s5)CC4)cn3)nc2n(C2CCCC2)c1=O [CPD-057, 2-(3-(2-(2-(2-(4-(6-((6-Acetyl-8-cyclopentyl-5-methyl-7-oxo-7,8-dihydropyrido[2,3-d]pyrimidin-2-yl)amino)pyridin-3-yl)piperazin-1-yl)acetamido)ethoxy)ethoxy)propanamido)-N-(4-cyclopropyl-5-methylthiazol-2-yl)benzamide] |  | A (protein percentage degradation >=80%) | 50 to 80 | 
18 | CC(=O)c1c(C)c2cnc(Nc3ccc(N4CCN(CC(=O)NCCOCCOCCC(=O)Nc5ccccc5C(=O)Nc5ccc(F)cn5)CC4)cn3)nc2n(C2CCCC2)c1=O [CPD-081, 2-(3-(2-(2-(2-(4-(6-((6-Acetyl-8-cyclopentyl-5-methyl-7-oxo-7,8-dihydropyrido[2,3-d]pyrimidin-2-yl)amino)pyridin-3-yl)piperazin-1-yl)acetamido)ethoxy)ethoxy)propanamido)-N-(5-fluoropyridin-2-yl)benzamide] |  | A (protein percentage degradation >=80%) | > 80 | 
19 | CC(=O)c1c(C)c2cnc(Nc3ccc(N4CCN(CC(=O)NCCCCCNc5cc(C)ccc5C(=O)Nc5ccc(N(C)C)nn5)CC4)cn3)nc2n(C2CCCC2)c1=O [CPD-373, 2-((5-(2-(4-(6-((6-Acetyl-8-cyclopentyl-5-methyl-7-oxo-7,8-dihydropyrido[2,3-d]pyrimidin-2-yl)amino)pyridin-3-yl)piperazin-1-yl)acetamido)pentyl)amino)-N-(6-(dimethylamino)pyridazin-3-yl)-4-methylbenzamide] |  | A (protein percentage degradation >=80%) | 50 to 80 | 
20 | CC(=O)c1c(C)c2cnc(Nc3ccc(N4CCN(C(=O)CCC(=O)Nc5ccccc5C(=O)Nc5nc(C)c(C)s5)CC4)cn3)nc2n(C2CCCC2)c1=O [CPD-153, 2-(4-(4-(6-((6-Acetyl-8-cyclopentyl-5-methyl-7-oxo-7,8-dihydropyrido[2,3-d]pyrimidin-2-yl)amino)pyridin-3-yl)piperazin-1-yl)-4-oxobutanamido)-N-(4,5-dimethylthiazol-2-yl)benzamide] |  | D (protein percentage degradation <30%) |  | < 30
21 | CC(=O)c1c(C)c2cnc(Nc3ccc(N4CCN(CC(=O)NCCCCCCCNC(=O)COc5ccc(C(=O)Nc6ncc(C)s6)c(C)c5)CC4)cn3)nc2n(C2CCCC2)c1=O [CPD-037, 4-(2-((7-(2-(4-(6-((6-Acetyl-8-cyclopentyl-5-methyl-7-oxo-7,8-dihydropyrido[2,3-d]pyrimidin-2-yl)amino)pyridin-3-yl)piperazin-1-yl)acetamido)heptyl)amino)-2-oxoethoxy)-2-methyl-N-(5-methylthiazol-2-yl)benzamide] |  | D (protein percentage degradation <30%) | < 30 | 
